pEC50, pIC50: −log10 of the molar value. Where two headings read alike, the source gives them in different places.
How the values were obtained:
human GLP-1 receptor [1] = biological target: T1, human GLP-1 receptor (Homo sapiens, UniProt P43220); assay: GLP-1 receptor binding: competitive binding assay (125I-GLP-1, SPA) on isolated membranes at low and high HSA
T1 construct: expressed in transfected cells; host or cells: BHK cells (parent line BHKTS13), clone FCW467-12A; membrane preparation
Protocol: The purpose of this example is to test the receptor binding of the GLP-1 derivatives in vitro. The receptor binding is a measure of affinity of a derivative for the human GLP-1 receptor.
Each derivative is added in a series of concentrations to isolated membranes containing the human GLP-1 receptor and displacement of the labelled ligand is monitored. The receptor binding is reported as the concentration at which half of the labelled ligand is displaced from the receptor, the IC50 value.
Buffer 1 consisted of 20 mM Na-HEPES plus 10 mM EDTA and pH was adjusted to 7.4. Buffer 2 consisted of 20 mM Na-HEPES plus 0.1 mM EDTA and pH was adjusted to 7.4. Assay buffer consisted of 50 mM HEPES supplemented with 5 mM EGTA, 5 mM MgCl2, 0.005% Tween 20 and pH was adjusted to 7.4. An 8% albumin stock consisted of HSA dissolved at 8% (w/v) in assay buffer. An 0.02% albumin stock consisted of HSA dissolved at 0.02% (w/v) in assay buffer.
The cells express the human GLP-1 receptor.
The cells were grown at 5% CO2 in DMEM, 10% fetal calf serum, 1% Pen/Strep (Penicillin/Streptomycin) and 1.0 mg/ml of the selection marker G418. To make a membrane preparation the cells were grown to approximately 80% confluence. The cells were washed twice in phosphate-buffered saline and harvested. The cells were pelleted using a brief centrifugation and the cell pellet was kept on ice. […] The homogenate was centrifuged for 15 minutes. The pellet was re-suspended (homogenised) in 10 ml buffer 2 and centrifuged. This step was repeated once more. The resulting pellet was re-suspended in buffer 2 and the protein concentration was determined. The membranes were aliquoted and stored at minus 80° C.
1. […] Assay continued with step 3.
2. For the receptor binding assay in the presence of high HSA (2%) 50 μl of the 8% albumin stock was added to each well of an assay plate. Assay continued with step 3.
4. Cell membrane aliquots were thawed and diluted to their working concentration. Fifty μl were added to each well in the assay plate.
5. WGA SPA beads were suspended in assay buffer at 20 mg/ml. The suspension was diluted to 10 mg/ml in assay buffer just prior to addition to the assay plate. Fifty μl were added to each well in the assay plate.
6. […] A 25 μl aliquot was reserved for measuring total counts/well.
7. The assay plate was incubated for 2 h at 30° C.
8. The assay plate was centrifuged for 10 min.
9. The assay plate was read in a Packard TopCount NXT instrument.
The data from the TopCount instrument were transferred to GraphPad Prism software. Individual replicates were analysed using non-linear regression. IC50 values were calculated by the software and reported in nM. The reported values are averages of all of the measured values for each compound.

human GLP-1 receptor [2] = biological target: T1, human GLP-1 receptor; assay: In vitro potency: CRE luciferase reporter gene assay in BHK cells expressing the human GLP-1 receptor; format: cell-based
Protocol: The purpose of this example is to test the activity, or potency, of the GLP-1 derivatives in vitro. The in vitro potency is the measure of human GLP-1 receptor activation in a whole cell assay.
In vitro potency was determined by measuring the response of the human GLP-1 receptor in a reporter gene assay. The assay was performed in a stably transfected BHK cell line that expresses the human GLP-1 receptor and contains the DNA for the cAMP response element (CRE) coupled to a promoter and the gene for firefly luciferase (CRE luciferase). When the human GLP-1 receptor is activated it results in the production of cAMP, which in turn results in the luciferase protein being expressed. When assay incubation is completed the luciferase substrate (luciferin) is added and the enzyme converts luciferin to oxyluciferin to produce bioluminescence. The luminescence is measured as the readout for the assay.
The cells were cultured at 5% CO2 in cell culture medium. They were aliquoted and stored in liquid nitrogen. Before each assay an aliquot was taken up and washed twice in PBS before being suspended at the desired concentration in the assay specific buffer.
The assay buffer consisted of 2% ovalbumin and 0.2% Pluronic F-68 in assay medium.
1) Cell stocks were thawed in a 37° C. water bath.
2) Cells were washed three times in PBS.
3) Cells were counted and adjusted to 5×10^3 cells/50 μl (1×10^5 cells/ml) in assay medium. A 50 μl aliquot of cells was transferred to each well in the assay plate.
4) Stocks of the test compounds and reference compounds were diluted to a concentration of 0.2 μM in assay buffer. […] 8) A 100 μl aliquot of steadylite plus reagent was added to each well of the assay plate. 9) Each assay plate was covered with aluminum foil to protect it from light and shaken for 30 min at room temperature. 10) Each assay plate was read in a BioTek Synergy 2 Multi-Mode Reader. Calculations and Results
The data from the BioTek Synergy 2 Multi-Mode Reader were transferred to GraphPad Prism software. The software performs a non-linear regression (log(agonist) vs response (three parameters)).
A minimum of two replicates were measured for each sample. The reported EC50 values are averages of all of the measured values for each compound.

[3] = high HSA (2.0% final assay concentration), read-out: High HSA IC50
[4] = low HSA (max. 0.001% final assay concentration), read-out: Low HSA IC50
[5] = whole cell reporter gene assay, BHK cells, human GLP-1 receptor, average of at least two replicates, read-out: EC50

T1 sequence (P43220 24-463): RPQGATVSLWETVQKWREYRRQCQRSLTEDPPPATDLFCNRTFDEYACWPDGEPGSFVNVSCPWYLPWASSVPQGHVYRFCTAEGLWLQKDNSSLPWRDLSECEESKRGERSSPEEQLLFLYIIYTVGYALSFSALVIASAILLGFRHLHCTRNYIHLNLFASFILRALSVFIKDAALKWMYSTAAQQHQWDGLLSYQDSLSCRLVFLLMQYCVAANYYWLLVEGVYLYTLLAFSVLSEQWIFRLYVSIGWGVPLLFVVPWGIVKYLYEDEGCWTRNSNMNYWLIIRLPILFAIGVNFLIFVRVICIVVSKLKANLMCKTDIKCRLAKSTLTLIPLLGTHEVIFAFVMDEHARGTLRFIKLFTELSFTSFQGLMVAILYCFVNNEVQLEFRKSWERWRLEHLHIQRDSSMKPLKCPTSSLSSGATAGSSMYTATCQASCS

pIC50 (human GLP-1 receptor [1]; [3])	pIC50 (human GLP-1 receptor [1]; [4])	pEC50 (human GLP-1 receptor [2]; [5])	Compound	pIC50 (human GLP-1 receptor [1]; High HSA IC50, high HSA (2.0% final assay concentration))	pIC50 (human GLP-1 receptor [1]; Low HSA IC50, low HSA (max. 0.001% final assay concentration))	pEC50 (human GLP-1 receptor [2])
–	–	–	CC[C@H](C)[C@H](NC(=O)[C@H](Cc1ccccc1)NC(=O)[C@H](CCC(=O)O)NC(=O)[C@H](CCCNC(=N)N)NC(=O)[C@H](C)NC(=O)[C@H](C)NC(=O)[C@H](CCC(N)=O)NC(=O)[C@H](CCC(=O)O)NC(=O)[C@H](CCC(=O)O)NC(=O)[C@H](CC(C)C)NC(=O)[C@H](Cc1ccc(O)cc1)NC(=O)[C@H](CO)NC(=O)[C@H](CO)NC(=O)[C@@H](NC(=O)[C@H](CC(=O)O)NC(=O)[C@H](CO)NC(=O)[C@@H](NC(=O)[C@H](Cc1ccccc1)NC(=O)[C@@H](NC(=O)CNC(=O)[C@H](CCC(=O)O)NC(=O)C(C)(C)NC(=O)[C@@H](N)Cc1c[nH]cn1)[C@@H](C)O)[C@@H](C)O)C(C)C)C(=O)N[C@@H](C)C(=O)N[C@@H](Cc1c[nH]c2ccccc12)C(=O)N[C@@H](CC(C)C)C(=O)N[C@H](C(=O)N[C@@H](CCCNC(=N)N)C(=O)NCC(=O)N[C@@H](CCCNC(=N)N)C(=O)N[C@@H](CCCCNC(=O)CN(CCCNC(=O)COCCOCCNC(=O)COCCOCCNC(=O)COCCOCCNC(=O)COCCOCCNC(=O)COCCOCCNC(=O)COCCOCCNC(=O)[C@@H](N)CCCCNC(=O)[C@@H](N)CCCCNC(=O)CCCNC(=O)CCCCCCCCCCCCCCCS(=O)(=O)O)CCCNC(=O)COCCOCCNC(=O)COCCOCCNC(=O)COCCOCCNC(=O)COCCOCCNC(=O)COCCOCCNC(=O)COCCOCCNC(=O)[C@@H](N)CCCCNC(=O)[C@@H](N)CCCCNC(=O)CCCNC(=O)CCCCCCCCCCCCCCCS(=O)(=O)O)C(=O)O)C(C)C [Example 15]	8.47	10.30	11.25
8.48	10.00	11.77	CC[C@H](C)[C@H](NC(=O)[C@H](Cc1ccccc1)NC(=O)[C@H](CCC(=O)O)NC(=O)[C@H](CCCNC(=N)N)NC(=O)[C@H](C)NC(=O)[C@H](C)NC(=O)[C@H](CCC(N)=O)NC(=O)[C@H](CCC(=O)O)NC(=O)[C@H](CCC(=O)O)NC(=O)[C@H](CC(C)C)NC(=O)[C@H](Cc1ccc(O)cc1)NC(=O)[C@H](CO)NC(=O)[C@H](CO)NC(=O)[C@@H](NC(=O)[C@H](CC(=O)O)NC(=O)[C@H](CO)NC(=O)[C@@H](NC(=O)[C@H](Cc1ccccc1)NC(=O)[C@@H](NC(=O)CNC(=O)[C@H](CCC(=O)O)NC(=O)C(C)(C)NC(=O)[C@@H](N)Cc1c[nH]cn1)[C@@H](C)O)[C@@H](C)O)C(C)C)C(=O)N[C@@H](C)C(=O)N[C@@H](Cc1c[nH]c2ccccc12)C(=O)N[C@@H](CC(C)C)C(=O)N[C@H](C(=O)N[C@@H](CCCNC(=N)N)C(=O)NCC(=O)N[C@@H](CCCNC(=N)N)C(=O)N[C@@H](CCCCNC(=O)CN(CCCNC(=O)COCCOCCNC(=O)COCCOCCNC(=O)COCCOCCNC(=O)COCCOCCNC(=O)CC[C@H](NC(=O)CCCNC(=O)CCCCCCCCCCCCCCCS(=O)(=O)O)C(=O)O)CCCNC(=O)COCCOCCNC(=O)COCCOCCNC(=O)COCCOCCNC(=O)COCCOCCNC(=O)CC[C@H](NC(=O)CCCNC(=O)CCCCCCCCCCCCCCCS(=O)(=O)O)C(=O)O)C(=O)O)C(C)C [Example 16, N{Epsilon-37}-[2-[bis[3-[[2-[2-[2-[[2-[2-[2-[[2-[2-[2-[[2-[2-[2-[[(4S)-4-carboxy-4-[4-(16-sulfohexadecanoylamino)butanoylamino]butanoyl]amino]ethoxy]ethoxy]acetyl]amino]ethoxy]ethoxy]acetyl]amino]ethoxy]ethoxy]acetyl]amino]ethoxy]ethoxy]acetyl]amino]propyl]amino]acetyl]-[Aib8,Glu22,Arg26,Arg34,Lys37]-GLP-1-(7-37)-peptide]	–	–	–
8.49	9.80	11.92	CC[C@H](C)[C@H](NC(=O)[C@H](Cc1ccccc1)NC(=O)[C@H](CCC(=O)O)NC(=O)[C@H](CCCNC(=N)N)NC(=O)[C@H](C)NC(=O)[C@H](C)NC(=O)[C@H](CCC(N)=O)NC(=O)[C@H](CCC(=O)O)NC(=O)[C@H](CCC(=O)O)NC(=O)[C@H](CC(C)C)NC(=O)[C@H](Cc1ccc(O)cc1)NC(=O)[C@H](CO)NC(=O)[C@H](CO)NC(=O)[C@@H](NC(=O)[C@H](CC(=O)O)NC(=O)[C@H](CO)NC(=O)[C@@H](NC(=O)[C@H](Cc1ccccc1)NC(=O)[C@@H](NC(=O)CNC(=O)[C@H](CCC(=O)O)NC(=O)C(C)(C)NC(=O)[C@@H](N)Cc1c[nH]cn1)[C@@H](C)O)[C@@H](C)O)C(C)C)C(=O)N[C@@H](C)C(=O)N[C@@H](Cc1c[nH]c2ccccc12)C(=O)N[C@@H](CC(C)C)C(=O)N[C@H](C(=O)N[C@@H](CCCNC(=N)N)C(=O)NCC(=O)N[C@@H](CCCNC(=N)N)C(=O)N[C@@H](CCCCNC(=O)CN(CCCNC(=O)COCCOCCNC(=O)COCCOCCNC(=O)COCCOCCNC(=O)COCCOCCNC(=O)COCCOCCNC(=O)CC[C@H](NC(=O)CCCNC(=O)CCCCCCCCCCCCCCCS(=O)(=O)O)C(=O)O)CCCNC(=O)COCCOCCNC(=O)COCCOCCNC(=O)COCCOCCNC(=O)COCCOCCNC(=O)COCCOCCNC(=O)CC[C@H](NC(=O)CCCNC(=O)CCCCCCCCCCCCCCCS(=O)(=O)O)C(=O)O)C(=O)O)C(C)C [Example 17, N{Epsilon-37}-[2-[bis[3-[[2-[2-[2-[[2-[2-[2-[[2-[2-[2-[[2-[2-[2-[[2-[2-[2-[[(4S)-4-carboxy-4-[4-(16-sulfohexadecanoylamino)butanoylamino]butanoyl]amino]ethoxy]ethoxy]acetyl]amino]ethoxy]ethoxy]acetyl]amino]ethoxy]ethoxy]acetyl]amino]ethoxy]ethoxy]acetyl]amino]ethoxy]ethoxy]acetyl]amino]propyl]amino]acetyl]-[Aib8,Glu22,Arg26,Arg34,Lys37]-GLP-1-(7-37)-peptide]	–	–	–

Source: patent US11572398B2, “GLP-1 derivatives and uses thereof” (Novo Nordisk A/S, priority 2014, dated 2023)
